Reference: patent US20260042764A1, “COMPOSITIONS AND METHODS FOR INHIBITION OF KRAS” (TheRas, Inc., priority 2022, published 2026)

Key:
[1] = target: T1, Avi-KRAS WT (1-169) GppNHp/RAF1 RBD-3xFLAG (52-151) (Homo sapiens, UniProt P01116); assay: Raf1-KRAS WT-GppNHP disruption HTRF assay (Biological Example 1); format: binding; settings: KRAS WT-GppNHp/RAF1 RBD HTRF
T1 construct: Avi-KRAS WT (1-169)
Method in brief: (§1)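 Read-out is HTRF signal of the KRAS–RAF1 RBD complex, reported as percentage of activity relative to DMSO (100%). Protein mix and detection reagents each incubated 1 h at room temperature with 700 rpm shaking. Buffer: 50 mM Tris pH 7.5, 100 mM NaCl, 5 mM MgCl2, 0.1% BSA, 0.01% Tween, 10% DMSO.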

[2] = target: T2, Avi-KRAS G12D (1-169) GppNHp/RAF1 RBD-3xFLAG (52-151) (Homo sapiens, UniProt P01116, G12D); assay: Raf1-KRAS G12D-GppNHP disruption HTRF assay (Biological Example 1); format: binding; settings: KRAS G12D-GppNHp/RAF1 RBD HTRF
T2 construct: Avi-KRAS G12D (1-169)
T2 sequence (P01116 1-169 isoform P01116-2 G12D): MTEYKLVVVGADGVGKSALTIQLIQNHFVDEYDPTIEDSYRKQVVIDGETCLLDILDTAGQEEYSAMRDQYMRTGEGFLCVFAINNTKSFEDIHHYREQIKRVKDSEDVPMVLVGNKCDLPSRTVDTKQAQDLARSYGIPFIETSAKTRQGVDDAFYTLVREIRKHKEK
Method in brief: as §1

GP2d cells (KRAS G12D) = assay: Cell-based pERK HTRF assay in GP2d cell (Biological Example 2); settings: GP2d, GP2d (KRAS G12D) cells, pERK HTRF
Method in brief: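 GP2d (KRAS G12D) cells were plated in DMEM/10% FBS and treated the next day for 60 min with compounds. Dosing used 9-point half-log series starting at 1 μM or 100 nM in 0.25% DMSO. Lysates were read by HTRF pERK (d2/Eu cryptate antibodies) after 4–24 h at room temperature, with excitation at 320 nm and emission at 615 nm.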

[3] = target: T3, Avi-KRAS G12R (1-169) GppNHp/RAF1 RBD-3xFLAG (52-151) (Homo sapiens, UniProt P01116, G12R); assay: Raf1-KRAS G12R-GppNHP disruption HTRF assay (Biological Example 1); format: binding; settings: KRAS G12R-GppNHp/RAF1 RBD HTRF
T3 construct: Avi-KRAS G12R (1-169)
T3 sequence (P01116 1-169 isoform P01116-2 G12R): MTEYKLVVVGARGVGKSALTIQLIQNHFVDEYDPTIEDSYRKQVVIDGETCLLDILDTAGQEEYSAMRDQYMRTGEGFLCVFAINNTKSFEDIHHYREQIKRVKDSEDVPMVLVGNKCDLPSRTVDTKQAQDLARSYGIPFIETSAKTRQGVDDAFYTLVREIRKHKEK
Method in brief: as §1

[4] = target: T4, Avi-KRAS G12V (1-169) GppNHp/RAF1 RBD-3xFLAG (52-151) (Homo sapiens, UniProt P01116, G12V); assay: Raf1-KRAS G12V-GppNHP disruption HTRF assay (Biological Example 1); format: binding; settings: KRAS G12V-GppNHp/RAF1 RBD HTRF
T4 construct: Avi-KRAS G12V (1-169)
T4 sequence (P01116 1-169 isoform P01116-2 G12V): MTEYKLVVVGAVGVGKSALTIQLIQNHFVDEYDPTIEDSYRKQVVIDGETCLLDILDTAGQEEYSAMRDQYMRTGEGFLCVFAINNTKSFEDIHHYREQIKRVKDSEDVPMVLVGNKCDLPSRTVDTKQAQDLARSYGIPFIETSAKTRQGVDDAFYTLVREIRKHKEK
Method in brief: as §1

SW620 cells (KRAS G12V) = assay: Cell-based pERK HTRF assay in SW620 cell (Biological Example 4); settings: Homo sapiens, SW-620, SW620 (KRAS G12V) cells, pERK HTRF
Method in brief: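 SW620 (KRAS G12V) cells seeded at 3×10^4/well in RPMI, 10% FBS, then treated next day for 4 h with a 9-point half-log series from 1 μM top (0.25% DMSO). Lysates analyzed for pERK by HTRF (Eu cryptate/d2 antibodies, 4–24 h at room temperature), excitation 320 nm, emission 615 nm.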

T1 sequence (P01116 1-169 isoform P01116-2): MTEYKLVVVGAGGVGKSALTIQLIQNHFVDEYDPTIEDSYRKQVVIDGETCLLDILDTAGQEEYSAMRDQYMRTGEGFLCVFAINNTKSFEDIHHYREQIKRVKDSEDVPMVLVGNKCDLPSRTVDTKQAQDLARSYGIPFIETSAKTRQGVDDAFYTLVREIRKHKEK

SMILES	IC50 [1] [µM]	IC50 [2] [µM]	IC50 (GP2d cells (KRAS G12D)) [µM]	IC50 [3] [µM]	IC50 [4] [µM]	IC50 (SW620 cells (KRAS G12V)) [µM]
CC(=O)N1CCC2[C@H]1CCCN2c1nc(OC[C@@]23CCCN2C[C@H](F)C3)nc2c(F)c(-c3ccc(F)c4sc(N)c(C#N)c34)c(C(F)(F)F)cc12 (stereo partly drawn) [Compound 304]	0.1 to 1	1 to 10	< 0.1	1 to 10	1 to 10	0.1 to 1
N#Cc1c(N)sc2c(F)ccc(-c3c(C(F)(F)F)cc4c(N5CCCCCC5)nc(OC[C@@]56CCCN5C[C@H](F)C6)nc4c3F)c12 [Compound 305]	0.1 to 1	0.1 to 1	< 0.1	0.1 to 1	0.1 to 1	< 0.1
N#Cc1c(N)sc2c(F)ccc(-c3c(C(F)(F)F)cc4c(N5CC6CC(O)C(C6)C5)nc(OC[C@@]56CCCN5C[C@H](F)C6)nc4c3F)c12 (stereo partly drawn) [Compound 306]	1 to 10	1 to 10	0.1 to 1	1 to 10	> 10	0.1 to 1
CC(=O)N1CCC2[C@H]1CCN2c1nc(OC[C@@]23CCCN2C[C@H](F)C3)nc2c(F)c(-c3ccc(F)c4sc(N)c(C#N)c34)c(C(F)(F)F)cc12 (stereo partly drawn) [Compound 307]	1 to 10	1 to 10	< 0.1	1 to 10	1 to 10	< 0.1
N#Cc1c(N)sc2c(F)ccc(-c3c(C(F)(F)F)cc4c(N5CC6C(=O)NC(=O)C6C5)nc(OC[C@@]56CCCN5C[C@H](F)C6)nc4c3F)c12 (stereo partly drawn) [Compound 308]	0.1 to 1	0.1 to 1	0.1 to 1	1 to 10	1 to 10	> 1
CN(c1nc(OC[C@@]23CCCN2C[C@H](F)C3)nc2c(F)c(-c3ccc(F)c4sc(N)c(C#N)c34)c(C(F)(F)F)cc12)[C@H]1CC[C@@H](O)C1 [Compound 309]	0.1 to 1	0.1 to 1	< 0.1	0.1 to 1	0.1 to 1	< 0.1
N#Cc1c(N)sc2c(F)ccc(-c3c(C(F)(F)F)cc4c(N5CCC[C@H](CO)C5)nc(OC[C@@]56CCCN5C[C@H](F)C6)nc4c3F)c12 [Compound 310]	0.1 to 1	0.1 to 1	< 0.1	0.1 to 1	1 to 10	0.1 to 1
CN1CCN(c2nc(OC[C@@]34CCCN3C[C@H](F)C4)nc3c(F)c(-c4ccc(F)c5sc(N)c(C#N)c45)c(C(F)(F)F)cc23)CCS1(=O)=O [Compound 311]	> 10	> 10	> 1	> 10	> 10	> 1
C[C@@H]1[C@H](N(C)c2nc(OC[C@@]34CCCN3C[C@H](F)C4)nc3c(F)c(-c4ccc(F)c5sc(N)c(C#N)c45)c(C(F)(F)F)cc23)CCN1C(=O)C(C)(C)C [Compound 312]	0.1 to 1	0.1 to 1	< 0.1	0.1 to 1	0.1 to 1	< 0.1
C[C@@H]1[C@H](N(C)c2nc(OC[C@@]34CCCN3C[C@H](F)C4)nc3c(F)c(-c4ccc(F)c5sc(N)c(C#N)c45)c(C(F)(F)F)cc23)CCN1C(=O)C1(C)CC1 [Compound 313]	0.1 to 1	0.1 to 1	< 0.1	0.1 to 1	0.1 to 1	< 0.1
C[C@@H]1CC[C@@H](O)CN1c1nc(OC[C@@]23CCCN2C[C@H](F)C3)nc2c(F)c(-c3ccc(F)c4sc(N)c(C#N)c34)c(C(F)(F)F)cc12 [Compound 314]	0.1 to 1	0.1 to 1	< 0.1	0.1 to 1	0.1 to 1	< 0.1
CN(c1nc(OC[C@@]23CCCN2C[C@H](F)C3)nc2c(F)c(-c3ccc(F)c4sc(N)c(C#N)c34)c(C(F)(F)F)cc12)[C@@H]1CC[C@H](O)C1 [Compound 315]	0.1 to 1	0.1 to 1	< 0.1	1 to 10	1 to 10	< 0.1
N#Cc1c(N)sc2c(F)ccc(-c3c(C(F)(F)F)cc4c(N5CCC[C@@H](CO)C5)nc(OC[C@@]56CCCN5C[C@H](F)C6)nc4c3F)c12 [Compound 316]	0.1 to 1	0.1 to 1	< 0.1	0.1 to 1	1 to 10	< 0.1
C[C@H]1CC[C@@H](O)CN1c1nc(OC[C@@]23CCCN2C[C@H](F)C3)nc2c(F)c(-c3ccc(F)c4sc(N)c(C#N)c34)c(C(F)(F)F)cc12 [Compound 317]	0.1 to 1	0.1 to 1	< 0.1	0.1 to 1	1 to 10	< 0.1
Cc1nc(OC[C@@]23CCCN2C[C@H](F)C3)nc2c(F)c(-c3ccc(F)c4sc(N)c(C#N)c34)c(C(F)(F)F)cc12 [Compound 318, 2-amino-7-fluoro-4-[8-fluoro-2-[[(2R,8S)-2-fluoro-1,2,3,5,6,7-hexahydropyrrolizin-8-yl]methoxy]-4-methyl-6-(trifluoromethyl)quinazolin-7-yl]benzothiophene-3-carbonitrile]	1 to 10	0.1 to 1	< 0.1	0.1 to 1	1 to 10	0.1 to 1
N#Cc1c(N)sc2c(F)ccc(-c3c(C(F)(F)F)cc4c(N5C[C@@H]6C[C@H]5CS6(=O)=O)nc(OC[C@@]56CCCN5C[C@H](F)C6)nc4c3F)c12 [Compound 319]	1 to 10	0.1 to 1	0.1 to 1	1 to 10	1 to 10	0.1 to 1
N#Cc1c(N)sc2c(F)ccc(-c3c(C(F)(F)F)cc4c(N5C6CCC5CS(=O)(=O)C6)nc(OC[C@@]56CCCN5C[C@H](F)C6)nc4c3F)c12 [Compound 320]	0.1 to 1	0.1 to 1	< 0.1	1 to 10	1 to 10	< 0.1
CC(=O)N1C[C@H](N(C)c2nc(OC[C@@]34CCCN3C[C@H](F)C4)nc3c(F)c(-c4ccc(F)c5sc(N)c(C#N)c45)c(C(F)(F)F)cc23)C[C@H]1C [Compound 321]	0.1 to 1	0.1 to 1	< 0.1	0.1 to 1	0.1 to 1	< 0.1
N#Cc1c(N)sc2c(F)ccc(-c3c(C(F)(F)F)cc4c(N5C[C@H]6C[C@@H]5CS6(=O)=O)nc(OC[C@@]56CCCN5C[C@H](F)C6)nc4c3F)c12 [Compound 322]	0.1 to 1	0.1 to 1	< 0.1	0.1 to 1	1 to 10	0.1 to 1
CCC(=O)N1CC[C@@H](N(CC)c2nc(OC[C@@]34CCCN3C[C@H](F)C4)nc3c(F)c(-c4ccc(F)c5sc(N)c(C#N)c45)c(Cl)cc23)[C@H]1C [Compound 324]	0.1 to 1	0.1 to 1	< 0.1	0.1 to 1	0.1 to 1	< 0.1
